Tests used:
[1] = test system: CAKI-1 human renal tumor xenograft; assay: Aplidine with temsirolimus, CAKI-1 xenograft in athymic nude mice (Example 4); type: in vivo; conditions: for % Inhibition G4: temsirolimus 10 mg/kg/day; for % Inhibition G3: temsirolimus 20 mg/kg/day
Method: Female athymic nude mice (Harlan Sprague Dawley, Madison, Wis.) were utilized for all experiments. Mice were implanted with a cell suspension when mice were 6-8 weeks of age. Animals were housed in ventilated rack caging with food and water ad libitum. The mice were acclimated for at least 5 days prior to tumor implantation. […] The tumor model used in this study was CAKI-1, which was implanted in the animals as disclosed in Example 2.
Tumor measurements were determined as disclosed in Example 1. When tumor growth was within an average size range of 140±34 mg (mean±SD), mice were randomized into the treatment and control groups based on tumor weight by using LabCat® In Life module V 8.0 SP1 tumor tracking and measurement software.
The treatment of CAKI-1-tumor-bearing mice was initiated on DPI (Day Post Implantation) 21. Body weights were recorded on treatment days and when tumor sizes were measured. In those days wherein the two drugs were administered the same day, the combination therapy groups were treated by co-administering the two drugs at the same time, with no attempt to sequence the treatments.
(§1) Aplidine was provided in the form of vials of lyophilized aplidine powder which was reconstituted in Cremophor EL/ethanol/water (CEW) 15/15/70 to a concentration of 0.5 mg/ml. The aplidine solution in CEW was diluted in 0.9% Saline to the dosing formulation concentrations, being the final proportion of CEW of 0.18/0.18/0.84.
(§2) Temsirolimus was provided in the form of vials containing a non-aqueous, ethanolic, sterile solution of temsirolimus, 25 mg/ml. […] Then, the solution was further diluted in 0.9% Saline to the dosing formulation concentrations.
(§3) Tumor size measurements were recorded twice weekly from the treatment initiation until the termination of the study. Tumor growth inhibition was assessed comparing the mean tumor weight between the two agents in combination (aplidine and temsirolimus) against temsirolimus mean tumor weight at the different concentrations assayed.
(§4) Mean, standard deviation and standard error of the mean were determined for tumor volume for all animal groups at all assessments. Student's t test was performed on tumor volumes at each measurement day, including at the end of the study, to determine whether there were any statistically significant differences between combination treatment groups and single monotherapy treatment groups.
The definition and criteria for the evaluation of potentiation and the degree of additivity for the combination therapy were the same as those disclosed in Example 1.

[2] = test system: NCI-H-460 human NSCLC xenograft; assay: Aplidine with temsirolimus, NCI-H-460 xenograft in athymic nude mice (Example 5); type: in vivo; conditions: for % Inhibition G4: temsirolimus 10 mg/kg/day; for % Inhibition G3: temsirolimus 20 mg/kg/day
Method: Female athymic nude mice (Harlan Sprague Dawley, Madison, Wis.) were utilized for all experiments. Mice were implanted with a cell suspension when mice were 6-8 weeks of age. Animals were housed in ventilated rack caging with food and water ad libitum. The mice were acclimated for at least 5 days prior to tumor implantation.
The tumor model used in this study was NCI-H-460, which is a human NSCLC cell line obtained from the ATCC (Manassas, Va.). NCI-H-460 cells were grown in RPMI-1640 medium, 10% FBS, 10 mM Hepes, 1 mM sodium pyruvate, 4.5 g/l glucose, 1.5 g/l sodium bicarbonate and 2 mM L-glutamine. Cells from in vitro passage 11 were implanted SC into study mice: 5×10^6 cells/mouse in 0.2 ml 50% Matrigel/50% medium without antibiotics or serum, using a 23 G needle and 1 cc syringe.
Tumor measurements were determined as disclosed in Example 1. When tumor growth was within an average size range of 110±25 mg (mean±SD), mice were randomized into the treatment and control groups based on tumor weight by using LabCat® In Life module V 8.0 SP1 tumor tracking and measurement software.
The treatment of NCI-H-460-tumor-bearing mice was initiated on DPI (Day Post Implantation) 7. Body weights were recorded on treatment days and when tumor sizes were measured. In those days wherein the two drugs were administered the same day, the combination therapy groups were treated by co-administering the two drugs at the same time, with no attempt to sequence the treatments.
as §1, §2, §3, §4
The definition and criteria for the evaluation of potentiation and the degree of additivity for the combination therapy were the same as those disclose in Example 1.

[3] = G3: temsirolimus 20 mg/kg/day IP
[4] = G4: temsirolimus 10 mg/kg/day IP
[5] = temsirolimus 10 and 20 mg/kg/day

For CO[C@H]1C[C@@H]2CC[C@@H](C)[C@@](O)(O2)C(=O)C(=O)N2CCCC[C@H]2C(=O)O[C@H]([C@H](C)C[C@@H]2CC[C@@H](OC(=O)C(C)(CO)CO)[C@H](OC)C2)CC(=O)[C@H](C)/C=C(\C)[C@@H](O)[C@@H](OC)C(=O)[C@H](C)C[C@H](C)/C=C/C=C/C=C/1C [temsirolimus], the “% T/C on day 21” value [1, 3] was 98.3%, the “% T/C on day 24” value [1, 3] was 76.7% and the “% T/C on day 27” value [1, 3] was 75.3%. For the same compound, the “% T/C on day 30” value [1, 3] was 47.0%, the “% T/C on day 34” value [1, 3] was 42.2% and the “% T/C on day 38” value [1, 3] was 48.0%. For the same compound, the “% T/C on day 42” value [1, 3] was 51.9%, the “% T/C on day 45” value [1, 3] was 58.9% and the “% T/C on day 48” value [1, 3] was 63.6%. For the same compound, the “% T/C on day 56” value [1, 3] was 75.3%, the “% T/C on day 58” value [1, 3] was 78.8% and the “% T/C on day 21” value [1, 4] was 95.7%. The “% T/C on day 24” value [1, 4] was 69.9%, the “% T/C on day 27” value [1, 4] was 81.3% and the “% T/C on day 30” value [1, 4] was 53.2%. The “% T/C on day 34” value [1, 4] was 50.4%, the “% T/C on day 38” value [1, 4] was 51.1% and the “% T/C on day 42” value [1, 4] was 60.3%. The “% T/C on day 45” value [1, 4] was 66.7%, the “% T/C on day 48” value [1, 4] was 66.2% and the “% T/C on day 56” value [1, 4] was 73.4%. The “% T/C on day 58” value [1, 4] was 76.5%, the “% Inhibition G4” value ([1]; day 21) was 4.3% and the “% Inhibition G4” value ([1]; day 24) was 30.1%. For the same compound, the “% Inhibition G4” value ([1]; day 27) was 18.7%, the “% Inhibition G4” value ([1]; day 30) was 46.8% and the “% Inhibition G4” value ([1]; day 34) was 49.6%. For the same compound, the “% Inhibition G4” value ([1]; day 38) was 48.9%, the “% Inhibition G4” value ([1]; day 42) was 39.7% and the “% Inhibition G4” value ([1]; day 45) was 33.3%. The “% Inhibition G4” value ([1]; day 48) was 33.8%, the “% Inhibition G4” value ([1]; day 56) was 26.6% and the “% Inhibition G4” value ([1]; day 58) was 23.5%. For the same compound, the “% Inhibition G3” value ([1]; day 21) was 1.7%, the “% Inhibition G3” value ([1]; day 24) was 23.3% and the “% Inhibition G3” value ([1]; day 27) was 24.7%. For the same compound, the “% Inhibition G3” value ([1]; day 30) was 53.0%, the “% Inhibition G3” value ([1]; day 34) was 57.8% and the “% Inhibition G3” value ([1]; day 38) was 52.0%. For the same compound, the “% Inhibition G3” value ([1]; day 42) was 48.1%, the “% Inhibition G3” value ([1]; day 45) was 41.1% and the “% Inhibition G3” value ([1]; day 48) was 36.4%. The “% Inhibition G3” value ([1]; day 56) was 24.7%, the “% Inhibition G3” value ([1]; day 58) was 21.2% and the “antitumor activity as single agent (monotherapy)” value [1, 5] was “did not meet the NCI criteria for activity”. The “% T/C on day 7” value [2, 3] was 98.2%, the “% T/C on day 10” value [2, 3] was 41.2% and the “% T/C on day 13” value [2, 3] was 30.5%. For the same compound, the “% T/C on day 16” value [2, 3] was 30.9%, the “% T/C on day 20” value [2, 3] was 26.3% and the “% T/C on day 23” value [2, 3] was 27.4%. For the same compound, the “% T/C on day 27” value [2, 3] was 35.6%, the “% T/C on day 29” value [2, 3] was 48.2% and the “% T/C on day 31” value [2, 3] was 56.8%. For the same compound, the “% T/C on day 7” value [2, 4] was 102.1%, the “% T/C on day 10” value [2, 4] was 49.9% and the “% T/C on day 13” value [2, 4] was 37.1%. For the same compound, the “% T/C on day 16” value [2, 4] was 34.1%, the “% T/C on day 20” value [2, 4] was 30.9% and the “% T/C on day 23” value [2, 4] was 31.4%. The “% T/C on day 27” value [2, 4] was 42.6%, the “% T/C on day 29” value [2, 4] was 57.8% and the “% T/C on day 31” value [2, 4] was 60.3%. For the same compound, the “% Inhibition G4” value ([2]; day 7) was −2.1%, the “% Inhibition G4” value ([2]; day 10) was 50.1% and the “% Inhibition G4” value ([2]; day 13) was 62.9%. The “% Inhibition G4” value ([2]; day 16) was 65.9%, the “% Inhibition G4” value ([2]; day 20) was 69.1% and the “% Inhibition G4” value ([2]; day 23) was 68.6%. The “% Inhibition G4” value ([2]; day 27) was 57.4%, the “% Inhibition G4” value ([2]; day 29) was 42.2% and the “% Inhibition G4” value ([2]; day 31) was 39.7%. The “% Inhibition G3” value ([2]; day 7) was 1.8%, the “% Inhibition G3” value ([2]; day 10) was 58.8% and the “% Inhibition G3” value ([2]; day 13) was 69.5%. The “% Inhibition G3” value ([2]; day 16) was 69.1%, the “% Inhibition G3” value ([2]; day 20) was 73.7% and the “% Inhibition G3” value ([2]; day 23) was 72.6%. The “% Inhibition G3” value ([2]; day 27) was 64.4%, the “% Inhibition G3” value ([2]; day 29) was 51.8% and the “% Inhibition G3” value ([2]; day 31) was 43.2%. For the same compound, the “antitumor activity as single agent (monotherapy)” value [2, 5] was “meeting the NCI criteria for activity”.
